Like-named read-outs stand apart in the source and are kept apart here.
Legend:
CYP1A1 mRNA [1] = assay: CYP1A1 mRNA (qRT-PCR) in wild-type and AhR-knockout HT-29 cells; assay type: cell-based, human
Description: Figure 4 Effects of MICT on the induction of CYP1A1 mRNA in human hepatic and intestinal cells. Cultured cells were incubated for 24 h with the vehicle (DMSO; 0.1% v/v) and tested MICT in the presence or absence of TCDD (10 nM). RT-PCR determined the level of CYP1A1 mRNA, and the data were normalized per GAPDH mRNA level. […] (A,B) Experiments in three consecutive passages of human colon adenocarcinoma cell line LS180 in the absence (A) and the presence (B) of 10 nM TCDD. The bar graphs show the percentage of maximal induction attained by TCDD and are expressed as the mean ± SD. (C) Experiments in three consecutive passages of wild-type (AhR^+/^+) and AhR-knockout (AhR^−/^−) HT-29 cells. […] (D) Primary human hepatocytes from three different donors (LH79, Hep2201020, and Hep2201021).
CRISPR/Cas9 knockout of the AhR in HT-29 cells: A CRISPR/Cas9 expression vector with GFP, pSpCas9(BB)-2A-GFP (PX458) (#48138; Addgene, Cambridge, MA, USA) was used for integration of the gRNA complementary to exon 2 of the AHR gene. 4 × 10^5 cells were seeded in a 6-well plate and transfected (at 60–70% confluence) with a mixture of vector DNA and Lipofectamine™ 3000 (Life Technologies) according to the manufacturer’s instructions. The transfected cells positive for GFP signal were sorted using BD Aria II Sorp (Becton Dickinson, Franklin Lakes, NJ, USA), in a single cell suspension into a 96-well plate. DNA isolation was performed by a QIAamp DNA Mini Kit (Qiagen, Hilden, Germany) according to the manufacturer’s instructions. The function of the CRISPR/Cas9 system was verified by the SURVEYOR mutation detection kit (Integrated DNA Technologies, Leuven, Belgium) according to the manufacturer’s instructions. The positive clones were checked for AhR expression by Western Blotting. PCR amplification products were purified using the QIAquick PCR Purification Kit (Qiagen) and integrated into a plasmid vector (pGEM_T Easy Vector Systems, Promega), and E.coli DHP α (MAX Efficiency DH5a Competent Cells, Thermo Fisher; Waltham, MA, USA) were transformed according to manufacturer’s instructions, DNA was isolated, and deletions in the AhR gene sequences were verified by sequencing (Mix2seq, Eurofins Genomic, Luxembourg).
Total RNA was isolated using TRI Reagent® (Sigma Aldrich, Prague, Czech Republic). cDNA was synthesized using M-MuLV reverse transcriptase (New England Biolabs, Ipswich, MA, USA). The reverse transcription was performed at 42 °C for 60 min using Random Primers 6 (New England Biolabs, Ipswich, MA, USA) and diluted in a 1:4 ratio by PCR-grade water. The quantitative reverse transcriptase-polymerase chain reaction (qRT-PCR) was performed on the Lightcycler 480 II using the LightCycler ® 480 Probes Master (Roche Diagnostic Corporation, Prague, Czech Republic). The levels of CYP1A1 and GAPDH mRNAs were determined using the Universal Probe Library probes (UPL; Roche Diagnostic Corporation, Prague, Czech Republic) in combination with specific primers, using a protocol described elsewhere. All measurements were performed in triplicates, and the gene expression was normalized to glyceraldehyde-3-phosphate dehydrogenase (GAPDH) as a house-keeping gene. The data were processed using the delta-delta Ct method and expressed as a fold induction over the negative control (DMSO) or as a percentage of the positive control (maximal induction by TCDD).

murine AhR = target: T1, murine AhR (Mus musculus, UniProt P30561); assay: Competitive radio-ligand ([3H]-TCDD) AhR binding assay, cytosols from Hepa1c1c7 cells; conditions: Table 1 summary class
T1 sequence (P30561 10-805): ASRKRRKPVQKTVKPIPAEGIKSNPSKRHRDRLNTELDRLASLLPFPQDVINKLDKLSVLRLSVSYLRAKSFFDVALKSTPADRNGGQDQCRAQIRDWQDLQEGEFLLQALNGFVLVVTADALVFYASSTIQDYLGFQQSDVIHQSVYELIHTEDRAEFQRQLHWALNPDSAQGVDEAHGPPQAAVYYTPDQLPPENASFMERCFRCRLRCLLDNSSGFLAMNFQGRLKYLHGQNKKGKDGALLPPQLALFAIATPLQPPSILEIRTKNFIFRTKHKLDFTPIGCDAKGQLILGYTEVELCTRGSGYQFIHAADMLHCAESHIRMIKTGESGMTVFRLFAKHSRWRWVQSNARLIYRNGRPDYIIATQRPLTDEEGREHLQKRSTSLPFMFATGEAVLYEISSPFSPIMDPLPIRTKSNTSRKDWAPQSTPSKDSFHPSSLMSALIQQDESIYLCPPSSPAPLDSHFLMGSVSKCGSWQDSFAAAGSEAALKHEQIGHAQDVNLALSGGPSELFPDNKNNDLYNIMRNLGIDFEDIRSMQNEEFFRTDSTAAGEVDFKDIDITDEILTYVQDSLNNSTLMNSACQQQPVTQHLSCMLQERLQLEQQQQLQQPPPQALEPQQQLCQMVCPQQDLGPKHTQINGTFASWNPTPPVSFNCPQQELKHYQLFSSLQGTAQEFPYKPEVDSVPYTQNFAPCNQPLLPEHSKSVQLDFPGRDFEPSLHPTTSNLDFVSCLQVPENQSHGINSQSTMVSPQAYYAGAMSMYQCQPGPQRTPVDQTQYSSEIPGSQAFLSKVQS
Description: Figure 2 Competitive radio-ligand binding assay. Cytosols from Hepa1c1c7 cells were incubated with vehicle (negative control; 0.1% V/V), FICZ (positive control; 0.01 nM – 10 nM), TCDF (non-specific binding; 200 nM) and increasing doses of MICT in the presence of 2 nM [^3H]-TCDD. The specific binding of [^3H]-TCDD was determined as a difference between total and non-specific (200 nM; TCDF) reactions (value for vehicle DMSO; 0.1% V/V = corresponds to specific binding of [^3H]-TCDD = 100%). At least two independent experiments were performed and the incubations were done in triplicates in each experiment (technical replicates).
Ligand binding assay was performed using cytosolic protein extracts from murine Hepa1c1c7 cells as described. Briefly, aliquots of protein (2 mg/mL) were incubated at the room temperature for two (2) h with 2 nM [^3H]-TCDD in the presence of DMSO (vehicle control), FICZ (positive control), 200 nM TCDF (non-specific binding) or increasing concentration of MICT. After the incubation, the hydroxyapatite slurry was added to the samples and the suspension was incubated on ice and washed three times with HEGT buffer. The hydroxyapatite pellet was re-suspended in scintillation cocktail, and radioactivity was determined in a liquid scintillation counter. The specific binding of [^3H]-TCDD was determined by subtracting the radioactivity of non-specific reaction (TCDF) from total radioactivity. The values of IC50 were calculated where appropriate.

CYP1A1 mRNA [2] = tested on: CYP1A1 mRNA; set-up: method as in PMID 24563545; conditions: cited from earlier work
[3] = colon HT-29 cells, wild-type, 24 h

Cc1c[nH]c2ccccc12 [3MI, skatole]
induction of CYP1A1 mRNA (CYP1A1 mRNA [1]; [3]): weaker inducers | Affinity (IC50) (murine AhR): low

O=Cc1c[nH]c2ccccc12 [IA, indole-3-aldehyde]
Affinity (IC50) (murine AhR): no

O=C(O)/C=C/c1c[nH]c2ccccc12 [IAC, indole-3-acrylate]
induction of CYP1A1 mRNA (CYP1A1 mRNA [1]; [3]): strong induction | Affinity (IC50) (murine AhR): very low

NC(=O)Cc1c[nH]c2ccccc12 [IAD, indole-3-acetamide]
induction of CYP1A1 mRNA (CYP1A1 mRNA [1]; [3]): strong induction | Affinity (IC50) (murine AhR): low

OCCc1c[nH]c2ccccc12 [IET, indole-3-ethanol]
Affinity (IC50) (murine AhR): very low

O=C(O)C(O)Cc1c[nH]c2ccccc12 (stereo not drawn) [ILA, indole-3-lactate]
Affinity (IC50) (murine AhR): no

c1ccc2[nH]ccc2c1 [IND, indole]
induction of CYP1A1 mRNA (CYP1A1 mRNA [1]): weaker inducers | Affinity (IC50) (murine AhR): very low | induction of CYP1A1 mRNA (CYP1A1 mRNA [2]; various human cells, 500–1000 µM IND): moderate induction

O=C(O)C(=O)Cc1c[nH]c2ccccc12 [IPY, indole-3-pyruvate]
induction of CYP1A1 mRNA (CYP1A1 mRNA [1]; [3]): strong induction | Affinity (IC50) (murine AhR): low

NCCc1c[nH]c2ccccc12 [TA, tryptamine]
induction of CYP1A1 mRNA (CYP1A1 mRNA [1]; [3]): weaker inducers | Affinity (IC50) (murine AhR): no | CYP1A1 mRNA induction (CYP1A1 mRNA [2]; 50 µM TA, Caco-2 and cells): induction

Clc1cc2c(cc1Cl)Oc1cc(Cl)c(Cl)cc1O2 [TCDD, 2,3,7,8-tetrachlorodibenzo-p-dioxin, reference compound]
CYP1A1 induction (CYP1A1 mRNA [1]; AhR knock-out HT-29 variant, 24 h): nullified

Source: article PMC7177849, “Gut Microbial Catabolites of Tryptophan Are Ligands and Agonists of the Aryl Hydrocarbon Receptor: A Detailed Characterization” (International Journal of Molecular Sciences, 2020)
